In US9511134B2, “Inducing immune responses to influenza virus using polypeptide and nucleic acid compositions” (priority 2006, dated 2016) one finds IC50 data, which are given here for 15 compounds.

Test in all cases: biochemical
Holding throughout (format): binding

The target in one assay is DRB1*1302 (Homo sapiens, UniProt P01903+P01911, A100E/A169T/K41T/L162R/M171V/P40S/Q125H/Q178H/Q39Y/Q99D/R42S/S66N/T262R/V115G/W38E/Y61H). To be noted: read-out: IC50 nM to purified HLA DRB1*1302.
A further assay concerns the target T1, DRB1*0301 (Homo sapiens, UniProt P01903+P01911, A100K/A102G/A103R/A169T/F55Y/I96L/K41T/L162R/M171V/P40S/Q125H/Q178H/Q39Y/R42S/S66N/T106N/T262R/W38E/Y61H).
T1 construct: made in house; host or cells: EBV-transformed homozygous human B cell lines, transfected fibroblasts or single-allele 721.221 transfectants

For the next assay, the target named is T2, DRB1*1501 (Homo sapiens, UniProt P01903+P01911).
T2 construct: made in house; host or cells: EBV-transformed homozygous human B cell lines, transfected fibroblasts or single-allele 721.221 transfectants
To be noted: read-out: IC50 nM to purified HLA DRB1*1501.

Another assay deals with T3, DRB1*0401 (Homo sapiens, UniProt P01903+P01911, A100K/A169T/F76Y/I96L/K127E/L162R/M171V/N62H/P40V/Q125Y/R42H/S133A/S149N/S66Y/V115G/V209L/W38E).
T3 construct: made in house; host or cells: EBV-transformed homozygous human B cell lines, transfected fibroblasts or single-allele 721.221 transfectants
The following applies: read-out: IC50 nM to purified HLA DRB1*0401.

The target of another assay is T4, DRB4*0101 (Homo sapiens, UniProt P01903+P13762, G164S).
T4 construct: made in house; host or cells: EBV-transformed homozygous human B cell lines, transfected fibroblasts or single-allele 721.221 transfectants
To be noted: IC50 nM to purified HLA DRB4*0101.

A further assay has as its target DRB1*0404 (Homo sapiens, UniProt P01903+P01911, A100R/A169T/F76Y/I96L/K127E/L162R/M171V/N62H/P40V/Q125Y/R42H/S133A/S149N/S66Y/V209L/W38E). The following applies: IC50 nM to purified HLA DRB1*0404.
Another assay addresses T5, DRB1*0101 (Homo sapiens, UniProt P01903+P01911, A100R/D57E/F55L/F60I/F76Y/I96L/L162R/M171V/P40L/Q125E/R42F/V115G/Y59C).
T5 construct: made in house; host or cells: EBV-transformed homozygous human B cell lines, transfected fibroblasts or single-allele 721.221 transfectants
To be noted: IC50 nM to purified HLA DRB1*0101.

In general, IC50 refers to the concentration that inhibits the measured activity by half.

Where no end group is shown, it is not given here.

T1 sequence (P01903 26-254, other chains not shown): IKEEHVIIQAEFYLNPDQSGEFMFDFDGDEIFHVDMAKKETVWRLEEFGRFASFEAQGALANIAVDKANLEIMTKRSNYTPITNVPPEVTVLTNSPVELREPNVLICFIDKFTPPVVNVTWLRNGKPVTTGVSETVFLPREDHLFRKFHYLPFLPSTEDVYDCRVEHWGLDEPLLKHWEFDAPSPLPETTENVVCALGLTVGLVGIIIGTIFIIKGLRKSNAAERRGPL
Sequence of DRB1*1302 (P01903 26-254 limits assumed, other chains not shown): as the sequence (P01903 26-254, other chains not shown) above

As to `CC(C)C[C@H](NC(=O)[C@H](C)NC(=O)CNC(=O)[C@H](CCC(N)=O)NC(=O)[C@@H](N)[C@@H](C)O)C(=O)N[C@@H](CC(C)C)C(=O)N[C@@H](CC(N)=O)C(=O)N[C@@H](CC(=O)O)C(=O)N[C@@H](CCCCN)C(=O)N[C@@H](Cc1c[nH]cn1)C(=O)N[C@@H](CO)C(=O)N[C@@H](CC(N)=O)C(=O)NCC(=O)N[C@H](C(=O)N[C@H](C(=O)N[C@@H](CCCCN)C(=O)N[C@@H](CC(=O)O)C(=O)O)C(C)C)[C@@H](C)O` [Flu.NA.115], the IC50 on DRB1*1302 came out at 468 nM; against DRB1*0301, 177 nM; at DRB1*1501, 822 nM; at DRB1*0401, 19000 nM.
Consider `CC[C@H](C)[C@H](NC(=O)[C@H](CC(C)C)NC(=O)[C@H](CCCNC(=N)N)NC(=O)CNC(=O)[C@@H](N)CCC(=O)O)C(=O)N[C@@H](CCC(N)=O)C(=O)N[C@@H](CC(N)=O)C(=O)N[C@@H](CO)C(=O)N[C@H](C(=O)N[C@H](C(=O)N[C@H](C(=O)N[C@@H](CCC(=O)O)C(=O)N[C@@H](CCCNC(=N)N)C(=O)N[C@@H](CCSC)C(=O)N[C@H](C(=O)O)C(C)C)[C@@H](C)CC)[C@@H](C)O)[C@@H](C)CC` [Flu.NP.56], for which the figures for the IC50 at DRB1*1302 and against DRB4*0101 were 55 nM and 15 nM, respectively.
As for `CC[C@H](C)[C@H](NC(=O)[C@H](CCCNC(=N)N)NC(=O)[C@H](CCCNC(=N)N)NC(=O)[C@@H](NC(=O)[C@H](CCC(=O)O)NC(=O)[C@H](CCC(=O)O)NC(=O)[C@H](CCCCN)NC(=O)[C@H](CC(=O)O)NC(=O)[C@H](Cc1ccc(O)cc1)NC(=O)[C@H](CC(C)C)NC(=O)[C@@H](NC(=O)[C@H](CC(C)C)NC(=O)[C@H](CCC(=O)O)NC(=O)[C@@H](N)CCCNC(=N)N)[C@@H](C)CC)[C@@H](C)CC)C(=O)N[C@@H](Cc1c[nH]c2ccccc12)C(=O)O` [Flu.NP.109], the values for the IC50 against DRB1*0301 and against DRB1*0404 were 59 nM and 1800 nM, respectively.
In the case of `CSCC[C@H](NC(=O)[C@H](C)NC(=O)[C@H](CCCCN)NC(=O)[C@@H](N)CCC(N)=O)C(=O)N[C@@H](CCSC)C(=O)N[C@@H](CC(=O)O)C(=O)N[C@@H](CCC(N)=O)C(=O)N[C@H](C(=O)N[C@@H](CCCNC(=N)N)C(=O)N[C@@H](CCC(=O)O)C(=O)N[C@@H](CO)C(=O)N[C@@H](CCCNC(=N)N)C(=O)N[C@@H](CC(N)=O)C(=O)N1CCC[C@H]1C(=O)NCC(=O)O)C(C)C` [Flu.NP.238], the IC50 against DRB1*0301 turned out to be 450 nM; at DRB1*0404, 1830 nM.
As for `CC[C@H](C)[C@H](NC(=O)[C@H](C)NC(=O)[C@@H](N)CCC(N)=O)C(=O)N[C@@H](CCSC)C(=O)N[C@@H](CC(=O)O)C(=O)N[C@@H](CCCCN)C(=O)N[C@@H](CC(=O)O)C(=O)N[C@H](C(=O)N[C@H](C(=O)N[C@@H](CC(C)C)C(=O)N[C@@H](CCCCN)C(=O)N[C@@H](C)C(=O)N[C@@H](CC(N)=O)C(=O)N[C@@H](Cc1ccccc1)C(=O)N[C@@H](CO)C(=O)O)[C@@H](C)CC)[C@@H](C)CC` [Flu.NS1.124], the IC50 on DRB1*0404 is 310 nM.
As to `CC[C@H](C)[C@H](NC(=O)[C@H](CO)NC(=O)[C@H](CCC(=O)O)NC(=O)CN)C(=O)N[C@H](C(=O)N[C@H](C(=O)N[C@@H](CCC(=O)O)C(=O)N[C@@H](CC(C)C)C(=O)N[C@@H](CC(=O)O)C(=O)N[C@@H](CC(=O)O)C(=O)N1CCC[C@H]1C(=O)N[C@@H](CC(N)=O)C(=O)N[C@@H](C)C(=O)N[C@@H](CC(C)C)C(=O)N[C@@H](CC(C)C)C(=O)O)C(C)C)[C@@H](C)CC` [Flu.PA.61], the IC50 at DRB1*1302 worked out at 59 nM; against DRB1*0404, 80 nM.
Turning to `CC(C)C[C@H](NC(=O)[C@H](CO)NC(=O)[C@H](CCCNC(=N)N)NC(=O)[C@H](CC(C)C)NC(=O)[C@H](CCC(=O)O)NC(=O)[C@@H]1CCCN1C(=O)[C@H](CCC(=O)O)NC(=O)[C@H](CC(=O)O)NC(=O)[C@H](CO)NC(=O)[C@H](CC(=O)O)NC(=O)[C@H](Cc1ccc(O)cc1)NC(=O)[C@H](CCC(N)=O)NC(=O)[C@H](CCCCN)NC(=O)[C@@H](N)CC(C)C)C(=O)N[C@@H](CO)C(=O)O` [Flu.PA.393], the IC50 against DRB1*0301 was found to be 88 nM; against DRB1*0101 it was 17700 nM; against DRB1*0404 it was 5800 nM; at DRB1*0401, 7260 nM.
Turning to `CC[C@H](C)[C@H](NC(=O)[C@H](CCC(=O)O)NC(=O)[C@H](CC(=O)O)NC(=O)[C@H](CC(C)C)NC(=O)[C@H](CCC(=O)O)NC(=O)[C@@H](NC(=O)[C@H](Cc1c[nH]c2ccccc12)NC(=O)[C@@H](NC(=O)[C@@H](N)CO)[C@@H](C)CC)[C@@H](C)CC)C(=O)NCC(=O)N[C@@H](CCC(=O)O)C(=O)N[C@@H](CC(=O)O)C(=O)N[C@H](C(=O)N[C@@H](C)C(=O)N1CCC[C@H]1C(=O)O)C(C)C` [Flu.PA.423], the IC50 at DRB1*0301 was found to be 59 nM; on DRB1*0101, 13400 nM; against DRB1*0404 it was 7610 nM; at DRB1*0401 it was 5400 nM.
For `CC(C)C[C@H](NC(=O)[C@H](CCCCN)NC(=O)[C@H](CCCNC(=N)N)NC(=O)[C@H](CO)NC(=O)[C@H](CCC(=O)O)NC(=O)[C@H](C)NC(=O)[C@H](CO)NC(=O)[C@H](Cc1ccccc1)NC(=O)CNC(=O)[C@H](CCC(=O)O)NC(=O)[C@@H](N)CC(C)C)C(=O)N[C@@H](CC(C)C)C(=O)N[C@@H](CC(C)C)C(=O)N[C@H](C(=O)N[C@H](C(=O)O)C(C)C)C(C)C` [Flu.PA.658], the IC50 on DRB1*1302 was 2270 nM; at DRB1*0301 it was 661 nM; at DRB1*0101, 12 nM; at DRB1*0401 it was 861 nM.
Regarding `CC[C@H](C)[C@H](NC(=O)[C@H](CCSC)NC(=O)[C@H](CC(N)=O)NC(=O)[C@@H](N)CC(N)=O)C(=O)N[C@@H](CC(N)=O)C(=O)N[C@@H](CC(N)=O)C(=O)N[C@@H](CC(=O)O)C(=O)N[C@@H](CC(C)C)C(=O)NCC(=O)N1CCC[C@H]1C(=O)N[C@@H](C)C(=O)N[C@H](C(=O)N[C@@H](C)C(=O)N[C@@H](CCC(N)=O)C(=O)N[C@@H](CCSC)C(=O)O)[C@@H](C)O` [Flu.PB1.535], the IC50 came to 477 nM on DRB1*1302, 527 nM against DRB1*0301, 1830 nM against DRB1*0404 and 798 nM on DRB1*0401.
As for `CC[C@H](C)[C@H](NC(=O)[C@H](CC(N)=O)NC(=O)[C@H](Cc1ccc(O)cc1)NC(=O)[C@H](CC(C)C)NC(=O)[C@H](CC(N)=O)NC(=O)[C@@H]1CCCN1C(=O)CNC(=O)CNC(=O)[C@H](CC(=O)O)NC(=O)[C@H](CO)NC(=O)[C@@H](NC(=O)[C@H](CC(C)C)NC(=O)[C@H](CC(C)C)NC(=O)CNC(=O)[C@H](C)N)C(C)C)C(=O)O` [Flu.PB1.590], the IC50 at DRB1*1302 is 105 nM; against DRB1*0301, 107 nM; against DRB1*0101, 8120 nM; against DRB1*0404, 3490 nM; at DRB1*0401 it was 3000 nM.
`CC[C@H](C)[C@H](NC(=O)[C@H](CCCNC(=N)N)NC(=O)[C@H](CCCCN)NC(=O)[C@H](CC(=O)O)NC(=O)[C@H](C)NC(=O)[C@@H](NC(=O)[C@@H](NC(=O)[C@@H]1CCCN1C(=O)[C@H](Cc1ccc(O)cc1)NC(=O)[C@@H](N)CCCCN)[C@@H](C)CC)[C@@H](C)O)C(=O)N[C@@H](CCSC)C(=O)N[C@@H](CCC(=O)O)C(=O)N[C@@H](CCSC)C(=O)N[C@H](C(=O)N1CCC[C@H]1C(=O)O)[C@@H](C)CC` [Flu.PB2.57]: the IC50 was 68 nM at DRB1*1302, 48 nM on DRB1*0301, 2290 nM against DRB1*0404 and 9390 nM at DRB1*0401.
Regarding `CC[C@H](C)[C@H](NC(=O)[C@@H](NC(=O)[C@H](CC(C)C)NC(=O)[C@H](CO)NC(=O)[C@H](CCC(N)=O)NC(=O)[C@H](CC(=O)O)NC(=O)[C@@H](NC(=O)[C@H](CC(=O)O)NC(=O)[C@H](CC(=O)O)NC(=O)[C@H](CC(N)=O)NC(=O)[C@H](CCCNC(=N)N)NC(=O)[C@@H](NC(=O)[C@H](CCC(=O)O)NC(=O)CNC(=O)CN)C(C)C)C(C)C)[C@@H](C)CC)C(=O)O` [Flu.PB2.250], the IC50 at DRB1*1302 was 2500 nM; on DRB1*0404, 458 nM.
Take `CC[C@H](C)[C@H](NC(=O)[C@H](CC(C)C)NC(=O)[C@@H](N)Cc1ccccc1)C(=O)N[C@@H](CC(C)C)C(=O)NCC(=O)N[C@@H](CCCCN)C(=O)N[C@@H](CCC(=O)O)C(=O)N[C@@H](CC(=O)O)C(=O)N[C@@H](CCCNC(=N)N)C(=O)N[C@@H](CCCNC(=N)N)C(=O)N[C@@H](Cc1ccc(O)cc1)C(=O)NCC(=O)N1CCC[C@H]1C(=O)N[C@@H](C)C(=O)N[C@@H](CC(C)C)C(=O)O` [Flu.PB2.697]: the IC50 on DRB1*1302 is 118 nM; against DRB1*0301, 565 nM; against DRB1*0101, 8390 nM; on DRB1*0401, 1740 nM.
For PVHFRNQVKIRRRVD [Flu.PB2.135], the IC50 is 359 nM on DRB1*1302; 458 nM against DRB1*0301; 2970 nM at DRB1*0101; 5980 nM against DRB1*0404; 1300 nM on DRB1*0401.
